The subject of assay [1] is MUC 5AC 5' regulatory region (M4-2 luciferase reporter gene construct) in HM3 cells. As to the kind of experiment: Inhibition of smoke-induced luciferase activity in HM3 cells transfected with M4-2 reporter construct. It is filed as cell-based, human. From the text: A DNA fragment extending from −3752 bp to +68 bp was cloned into the MluI/Smal site of the pGL3 vector (Promega). pGL3 contains a luciferase gene downstream from the Smal site. This construct, referred to as M4-2, was deposited with the American Type Culture Collection as ATCC designation 98701. M4-2 was co-transfected with pcDNA3, containing the neomycin resistance gene, into the epithelial cell line HM3. G418-selected colonies were pooled, expanded, and used in luciferase assays.
HM3 colon carcinoma cells (Kuan, et al. (1987) Cancer Res. 47:5715-5724) or NCIH292 lung carcinoma cells (Levine, et al. (1995) Am. J Respir. Disease 12:196-204) were transfected with the 4.0 Kb MUC 5AC reporter gene construct, M4-2, or the −614 construct from Example 2. Transfection was carried out essentially as described in Felgner et al. (1987), supra. In brief, 2 μl lipofectamine and 1 μg DNA were added to, approximately 5×10^6 cells in 100 μl of Optimen (Gibco) and incubated at room, temperature for about 30 minutes. The mixture was then diluted to 1 ml and added to one culture well of a 6 well plate. G418-selected colonies were pooled, expanded and used in luciferase assays.
Environmental tobacco smoke was used as a mucomone. Culture medium DME-F 12 (Dulbecco's Modified Eagle's:Haam's F12 at 1:1) was exposed to tobacco smoke at various concentrations, for 6 hours. Exposure of the medium was carried out in open culture dishes in an enclosed container into which tobacco smoke produced by burning cigarettes was introduced in a controlled manner. Smoke concentration was measured in units of total suspended particles/ml (TSP/ml). Transfected cells were transferred into the smoke-exposed medium (in 6-well plates, 5×10^5 cells per well) and incubated for various times. The cells were then harvested, lysed and the luciferase activity determined as described in Li et al. (1997).
Several possible inhibitors of mucomone-induced mucin production were tested for their effect on the smoke induced luciferase activity described in Example 3. Inhibitors tested included the inhibitors Genistein (Calbiochem), anti-MEK (PD98059; Alessi et al. 1995), PKC-I (Bisindolymaleimide) and PKA-l (KT 5720, Calbiochem). HM3 cells transfected with the 4.0 KB MUC 5AC construct, M4-2, were incubated in smoke-exposed medium as described in Example 3. The inhibitors were added to the cells at the concentrations indicated in Table 2 for various times before the cells were transferred to the smoke medium. Additional inhibitor was added to the smoke medium after the cells were transferred.

Assay [2] relates to MUC 2 gene transcription in epithelial cells. Particulars: epithelial cells pre-incubated with inhibitor; cited from earlier work.

Consider `CN(C)CCCn1cc(C2=C(c3c[nH]c4ccccc34)C(=O)NC2=O)c2ccccc21` [Bisindolymaleimide], for which the “relative luciferase activity (RLA) induced by smoke medium, with vs without inhibitor” value in assay [1] (Bisindolymaleimide 2.5 nM to 10 nM, added 1 hr before smoke medium) is on record as “lower”. In the case of `O=c1c(-c2ccc(O)cc2)coc2cc(O)cc(O)c12` [Genistein], the “relative luciferase activity (RLA) induced by smoke medium, with vs without inhibitor” value in assay [1] (Genistein 30 μM, added 30 min-2 hr before smoke medium) was “lower”. The “effect of pre-incubation on the PA LPS-induced increase in MUC 2 transcription” value in assay [2] is recorded as “abolished the increase in transcription”. For the compound `CCCCCCOC(=O)[C@]1(O)C[C@@H]2O[C@@]1(C)n1c3ccccc3c3c4c(c5c6ccccc6n2c5c31)C(=O)NC4` [KT 5720], the “relative luciferase activity (RLA) induced by smoke medium, with vs without inhibitor” value in assay [1] (KT 5720 0.1 to 0.5 μM, added 15 min-1 hr before smoke medium) is “lower”. Consider `COc1cccc(-c2cc(=O)c3ccccc3o2)c1N` [PD98059], for which the “relative luciferase activity (RLA) induced by smoke medium, with vs without inhibitor” value in assay [1] (PD98059 50-100 μM, added 1 hr before smoke medium) is “lower”.
